According to patent US7928140B2, “Benzothiazole PI3 kinase modulators for cancer treatment” (Amgen Inc., priority 2007, dated 2011):
pIC50: −log10 of the molar value.

Legend:
PI3K α = target: T1, PI3K α (Homo sapiens, UniProt P42336); test: In vitro PI3 kinase enzyme assay (alpha), ATP loss, bioluminescence; assay type: biochemical; conditions: read-out: PI3Kα ATP loss IC50;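 also: purified p110α/p85 heterodimer acting on PtdIns(4,5)P2 at room temperature, remaining ATP read by luminescence, inhibition scaled between compound-free wells with and without enzyme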
T1 construct: Full length p110 subunits of PI3K α, β and δ, N-terminally labeled with polyHis tag; polyHis (N); made in house; host or cells: Sf9 insect cells (baculovirus)
T1 sequence (P42336 whole entry, species assumed): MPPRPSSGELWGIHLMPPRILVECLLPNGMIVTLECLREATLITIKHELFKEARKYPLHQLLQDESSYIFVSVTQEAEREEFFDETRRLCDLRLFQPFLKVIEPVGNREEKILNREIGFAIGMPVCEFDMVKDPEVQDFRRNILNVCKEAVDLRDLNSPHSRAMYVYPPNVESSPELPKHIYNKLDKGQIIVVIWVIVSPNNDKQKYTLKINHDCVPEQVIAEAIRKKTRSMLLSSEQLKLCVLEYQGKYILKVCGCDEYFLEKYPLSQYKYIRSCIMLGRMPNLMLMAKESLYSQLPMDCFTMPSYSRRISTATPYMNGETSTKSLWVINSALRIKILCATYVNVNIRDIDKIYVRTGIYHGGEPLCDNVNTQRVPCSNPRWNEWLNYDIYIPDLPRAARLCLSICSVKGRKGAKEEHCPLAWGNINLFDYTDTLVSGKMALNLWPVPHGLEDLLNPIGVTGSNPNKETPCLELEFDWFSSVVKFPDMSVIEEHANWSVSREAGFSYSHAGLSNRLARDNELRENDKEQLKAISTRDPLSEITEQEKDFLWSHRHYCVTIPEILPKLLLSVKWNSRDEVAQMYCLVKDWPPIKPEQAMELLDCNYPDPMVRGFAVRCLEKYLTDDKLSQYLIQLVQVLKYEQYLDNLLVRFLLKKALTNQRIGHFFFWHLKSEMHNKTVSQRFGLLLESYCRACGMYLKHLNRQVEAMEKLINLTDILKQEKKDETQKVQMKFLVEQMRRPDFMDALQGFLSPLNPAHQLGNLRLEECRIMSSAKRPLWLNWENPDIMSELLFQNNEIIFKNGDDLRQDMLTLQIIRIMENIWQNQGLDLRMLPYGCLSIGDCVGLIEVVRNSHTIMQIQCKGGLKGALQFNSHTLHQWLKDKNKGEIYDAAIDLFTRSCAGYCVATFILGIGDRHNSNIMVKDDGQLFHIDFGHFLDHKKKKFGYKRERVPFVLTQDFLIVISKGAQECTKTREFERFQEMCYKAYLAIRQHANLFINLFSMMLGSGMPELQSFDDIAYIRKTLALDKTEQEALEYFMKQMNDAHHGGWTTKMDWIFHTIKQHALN
T1 sequence (P27986 whole entry partner, species assumed): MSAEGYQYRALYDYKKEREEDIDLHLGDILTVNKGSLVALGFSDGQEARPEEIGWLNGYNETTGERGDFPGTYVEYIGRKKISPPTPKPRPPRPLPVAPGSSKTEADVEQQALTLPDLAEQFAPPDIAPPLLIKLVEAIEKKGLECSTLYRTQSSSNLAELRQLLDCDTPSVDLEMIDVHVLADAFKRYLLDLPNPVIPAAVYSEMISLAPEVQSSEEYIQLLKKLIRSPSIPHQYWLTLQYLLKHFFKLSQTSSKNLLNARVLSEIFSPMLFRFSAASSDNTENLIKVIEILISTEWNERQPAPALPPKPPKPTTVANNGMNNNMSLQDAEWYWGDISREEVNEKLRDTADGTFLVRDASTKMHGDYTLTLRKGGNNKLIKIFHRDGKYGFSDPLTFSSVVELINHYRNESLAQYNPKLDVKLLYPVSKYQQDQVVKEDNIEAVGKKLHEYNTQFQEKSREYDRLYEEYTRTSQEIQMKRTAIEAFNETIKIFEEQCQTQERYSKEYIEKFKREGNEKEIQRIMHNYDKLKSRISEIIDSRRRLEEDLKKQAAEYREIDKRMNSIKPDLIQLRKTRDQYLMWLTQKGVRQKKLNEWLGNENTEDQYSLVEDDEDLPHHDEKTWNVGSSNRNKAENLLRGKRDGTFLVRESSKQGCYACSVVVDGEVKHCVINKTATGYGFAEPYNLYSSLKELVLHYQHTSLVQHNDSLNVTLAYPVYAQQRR

PI3K β = target: T2, PI3K β (Homo sapiens, UniProt P42338); test: In vitro PI3 kinase enzyme assay (beta), ATP loss, bioluminescence; assay type: biochemical; conditions: read-out: PI3Kβ ATP loss IC50;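 also: purified p110β/p85 heterodimer with PtdIns(4,5)P2 as acceptor, incubated at room temperature, leftover ATP read by luminescence, inhibition scaled to compound-free wells with and without enzyme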
T2 construct: Full length p110 subunits of PI3K α, β and δ, N-terminally labeled with polyHis tag; polyHis (N); made in house; host or cells: Sf9 insect cells (baculovirus)
T2 sequence (P42338 whole entry): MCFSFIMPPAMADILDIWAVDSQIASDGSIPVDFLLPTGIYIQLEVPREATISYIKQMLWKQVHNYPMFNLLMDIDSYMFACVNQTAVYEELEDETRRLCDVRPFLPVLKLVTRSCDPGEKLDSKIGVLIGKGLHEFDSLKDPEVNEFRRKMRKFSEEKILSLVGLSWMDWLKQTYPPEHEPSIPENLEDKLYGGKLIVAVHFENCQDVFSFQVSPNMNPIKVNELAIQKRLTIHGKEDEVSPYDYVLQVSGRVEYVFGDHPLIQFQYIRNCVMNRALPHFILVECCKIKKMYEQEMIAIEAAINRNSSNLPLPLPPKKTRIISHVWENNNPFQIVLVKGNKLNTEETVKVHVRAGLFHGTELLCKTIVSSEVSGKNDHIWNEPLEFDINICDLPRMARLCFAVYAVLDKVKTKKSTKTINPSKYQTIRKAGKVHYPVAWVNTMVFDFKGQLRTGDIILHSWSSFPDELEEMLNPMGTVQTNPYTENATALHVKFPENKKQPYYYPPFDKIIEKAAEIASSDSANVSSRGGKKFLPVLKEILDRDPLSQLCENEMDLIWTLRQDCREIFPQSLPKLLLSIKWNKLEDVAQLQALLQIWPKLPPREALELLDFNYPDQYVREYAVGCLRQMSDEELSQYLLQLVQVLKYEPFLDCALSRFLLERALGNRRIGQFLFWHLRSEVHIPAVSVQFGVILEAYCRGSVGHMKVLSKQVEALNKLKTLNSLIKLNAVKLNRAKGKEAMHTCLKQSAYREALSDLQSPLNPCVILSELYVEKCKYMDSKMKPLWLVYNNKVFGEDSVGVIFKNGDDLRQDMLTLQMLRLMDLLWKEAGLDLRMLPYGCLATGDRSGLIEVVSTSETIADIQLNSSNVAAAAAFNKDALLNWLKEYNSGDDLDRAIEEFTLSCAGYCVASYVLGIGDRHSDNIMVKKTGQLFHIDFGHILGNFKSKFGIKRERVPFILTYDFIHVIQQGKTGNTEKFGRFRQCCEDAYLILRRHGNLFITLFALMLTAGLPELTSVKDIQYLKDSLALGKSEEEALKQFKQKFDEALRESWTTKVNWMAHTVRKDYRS
T2 sequence (P27986 whole entry partner): as the sequence (P27986 whole entry partner, species assumed) above
Method: Full length p110 subunits of PI3K α, β and δ, N-terminally labeled with polyHis tag, were co-expressed with p85 in baculovirus expression vectors in sf9 insect cells. P110/p85 heterodimers were purified by sequential Ni-NTA, Q-HP, and Superdex-100 chromatography. Purified α, β and δ isozymes were stored at −20° C. in 20 mM Tris, pH 8, 0.2M NaCl, 50% glycerol, 5 mM DTT, 2 mM Na cholate.
PI3K enzyme assays (alpha, beta, delta and gamma) were performed in 25 mL with the above final concentrations of components in white polypropylene plates (Costar catalogue #3355). Phosphatidyl inositol phosphoacceptor, PtdIns(4,5)P2 (eg. P4508) was obtained from Echelon Biosciences. The ATPase activity of the alpha and gamma isozymes was not greatly stimulated by PtdIns(4,5)P2 under these conditions and was therefore omitted from the assay of these isozymes. Test compounds were dissolved in DMSO and diluted with three-fold serial dilutions. The compound in DMSO (1 μL) was added per test well, and the inhibition relative to reactions containing no compound, with and without enzyme was determined. After assay incubation at RT, the reaction was stopped and residual ATP determined by addition of an equal volume of a commercial ATP bioluminescence kit (Perkin Elmer EasyLite) according to the manufacturer's instructions, and detected using an Analyst GT luminometer.

| Compound | pIC50 (PI3K α) | pIC50 (PI3K β) |
| --- | --- | --- |
| CC(=O)Nc1nc2ccc(-c3ccnc(N4CCCC4c4ccccc4C)n3)cc2s1 (racemic) [Example 262, N-(6-(2-(2-o-tolylpyrrolidin-1-yl)pyrimidin-4-yl)benzo[d]thiazol-2-yl)acetamide] | 5.81 | 6.11 |
| CC(=O)Nc1nc2ccc(-c3cncc(OCCN4CCC(C)(C)C4=O)c3)cc2s1 [Example 252] | 5.53 | 4.35 |
| CC(=O)Nc1nc2ccc(-c3ccnc(N(C)S(=O)(=O)c4ccc(C)cc4)c3)cc2s1 [Example 215, N-(6-(2-(N,4-dimethylphenylsulfonamido)pyridin-4-yl)benzo[d]thiazol-2-yl)acetamide] | 6.36 | 6.35 |
| COc1ccccc1S(=O)(=O)c1cccc(-c2ccc3nc(NC(C)=O)sc3c2)n1 [Example 70, N-(6-(6-((2-methoxyphenyl)sulfonyl)-2-pyridinyl)-1,3-benzothiazol-2-yl)acetamide] | 6.54 | 5.81 |
| O=C(CN1CCOCC1)Nc1nc2ccc(-c3ccnc(OCc4ccccc4)n3)cc2s1 [Example 54, N-(6-(2-(benzyloxy)-4-pyrimidinyl)-1,3-benzothiazol-2-yl)-2-(4-morpholinyl)acetamide] | 5.14 | < 4.40 |
| CC(=O)Nc1nc2ccc(-c3cnc(OCCCN(C)C)c(NC(C)C)c3)cc2s1 [Example 153, N-(6-(6-(3-(dimethylamino)propoxy)-5-((1-methylethyl)amino)-3-pyridinyl)-1,3-benzothiazol-2-yl)acetamide] | 6.55 | 5.74 |
| CC(=O)Nc1nc2ccc(-c3ccnc(NN4CCCCC4)n3)cc2s1 [Example 265, N-(6-(2-(piperidin-1-ylamino)pyrimidin-4-yl)benzo[d]thiazol-2-yl)acetamide] | 5.59 | 4.39 |
| CC(C)(C)OC(=O)Nc1nc2ccc(-c3nnc(N(Cc4ccccc4)S(C)(=O)=O)o3)cc2s1 [Example 170, tert-Butyl 6-(5-(N-benzylmethan-9-ylsulfonamido)-1,3,4-oxadiazol-2-yl)benzo[d]thiazol-2-ylcarbamate] | 5.41 | 5.32 |
| Cc1nc2ccc(-c3cc(O)c(C(F)(F)F)nc3F)cc2s1 [Example 341, 6-fluoro-5-(2-methyl-1,3-benzothiazol-6-yl)-2-(trifluoromethyl)-3-pyridinol] | 4.66 | < 4.40 |
| COc1cc(Cl)ncc1-c1ccc2nc(NC(C)=O)sc2c1 [Example 246, N-(6-(6-chloro-4-methoxypyridin-3-yl)benzo[d]thiazol-2-yl)acetamide] | 6.59 | 4.91 |
| COc1ccc(-c2cccc3nc(NC(C)=O)sc23)cc1F [Example 94] | 6.00 | 4.61 |
| Nc1nc2ccc(-c3cccc(NS(=O)(=O)c4ccccc4F)n3)cc2s1 [Example 72, N-(6-(2-amino-1,3-benzothiazol-6-yl)-2-pyridinyl)-2-fluorobenzenesulfonamide] | 5.64 | 5.80 |
| CC(=O)Nc1nc2ccc(-c3ccnc(OC4CCN(C)CC4)n3)cc2s1 [Example 31, N-(6-(2-((1-methyl-4-piperidinyl)oxy)-4-pyrimidinyl)-1,3-benzothiazol-2-yl)acetamide] | 5.62 | < 4.40 |
| CN(C)c1cc(-c2ccc3nc(NC(=O)NCCN4CCOCC4)sc3c2)cnc1Cl [Example 273, 1-(6-(6-chloro-5-(dimethylamino)pyridin-3-yl)benzo[d]thiazol-2-yl)-3-(2-morpholinoethyl)urea] | 6.94 | 5.68 |
| CC(=O)Nc1nc2ccc(-c3ccnc(N(C)S(=O)(=O)c4cn(C)cn4)n3)cc2s1 [Example 211, N-(6-(2-(N,1-dimethyl-1H-imidazole-4-sulfonamido)pyrimidin-4-yl)benzo[d]thiazol-2-yl)acetamide] | 6.03 | 5.41 |
| CC(=O)Nc1nc2ccc(-c3ccnc(OCC4CCN(C)CC4)n3)cc2s1 [Example 25, N-(6-(2-((1-methyl-4-piperidinyl)methoxy)-4-pyrimidinyl)-1,3-benzothiazol-2-yl)acetamide] | 4.97 | 4.57 |
| COc1ccc(S(=O)(=O)Nc2nccc(-c3ccc4nc(NC(C)=O)sc4c3)n2)cc1OC [Example 87, N-(6-(2-(((3,4-dimethoxyphenyl)sulfonyl)amino)-4-pyrimidinyl)-1,3-benzothiazol-2-yl)acetamide] | 6.82 | 5.14 |
| CC(=O)Nc1nc2ccc(-c3cncc(N(C)S(=O)(=O)c4ccc(Cl)cc4)c3)cc2s1 [Example 220, N-(6-(5-(4-chloro-N-methylphenylsulfonamido)pyridin-3-yl)benzo[d]thiazol-2-yl)acetamide] | 6.27 | 5.48 |
| CC(=O)Nc1nc2ccc(-c3cnc(Cl)c(OC(C)C#N)c3)cc2s1 (stereo not shown) [Example 290, N-(6-(6-chloro-5-(1-cyanoethoxy)pyridin-3-yl)benzo[d]thiazol-2-yl)acetamide] | 6.96 | 6.13 |

| Compound | pIC50 (PI3K α) | pIC50 (PI3K β) |
| --- | --- | --- |
| CC(=O)Nc1nc2ccc(-c3cncc(OC(C)CN4CCOCC4)c3)cc2s1 (stereo not shown) [Example 231, N-(6-(5-(1-morpholinopropan-2-yloxy)pyridin-3-yl)benzo[d]thiazol-2-yl)acetamide] | 6.20 | 4.80 |
| CCOc1ccc(-c2ccc3nc(NC(C)=O)sc3c2)cn1 [Example 243, N-(6-(6-ethoxypyridin-3-yl)benzo[d]thiazol-2-yl)acetamide] | 6.81 | < 4.40 |
| COc1cccc(Sc2nccc(-c3ccc4nc(NC(C)=O)sc4c3)n2)c1 [Example 41, N-(6-(2-((3-methoxyphenyl)sulfanyl)-4-pyrimidinyl)-1,3-benzothiazol-2-yl)acetamide] | 6.72 | 6.90 |
| CC(=O)Nc1nc2ccc(-c3ccnc(Sc4ccccc4C(C)C)n3)cc2s1 [Example 154, N-(6-(2-((2-(1-methylethyl)phenyl)sulfanyl)-4-pyrimidinyl)-1,3-benzothiazol-2-yl)acetamide] | 6.42 | 5.92 |
| CC(=O)Nc1nc2ccc(-c3ccnc(OCCCCO)n3)cc2s1 [Example 103, N-(6-(2-(4-hydroxybutoxy)-4-pyrimidinyl)-1,3-benzothiazol-2-yl)acetamide] | 6.14 | < 4.40 |
| COCCOCOc1cc(-c2ccc3nc(NC(C)=O)sc3c2)cnc1Cl [Example 292, N-(6-(6-chloro-5-((2-methoxyethoxy)methoxy)pyridin-3-yl)benzo[d]thiazol-2-yl)acetamide] | 6.78 | 5.68 |
| COCCCNc1nccc(-c2ccc3nc(NC(C)=O)sc3c2)n1 [Example 46, N-(6-(2-((3-methoxypropyl)amino)-4-pyrimidinyl)-1,3-benzothiazol-2-yl)acetamide] | 5.92 | 4.69 |
| CC(=O)Nc1nc2ccc(-c3ccnc(Sc4cc(C)cc(C)c4)n3)cc2s1 [Example 149, N-(6-(2-((3,5-dimethylphenyl)sulfanyl)-4-pyrimidinyl)-1,3-benzothiazol-2-yl)acetamide] | 6.73 | 6.41 |
| CC(=O)Nc1nc2ccc(-c3ccnc(N4CCCC4c4ccccc4)n3)cc2s1 (racemic) [Example 266, N-(6-(2-(2-phenylpyrrolidin-1-yl)pyrimidin-4-yl)benzo[d]thiazol-2-yl)acetamide] | 5.58 | 5.79 |
| CC(=O)Nc1nc2ccc(-c3ccnc(OCCO)n3)cc2s1 [Example 104, N-(6-(2-(2-hydroxyethoxy)-4-pyrimidinyl)-1,3-benzothiazol-2-yl)acetamide] | 6.27 | < 4.40 |
| COc1ccc(S(=O)(=O)Nc2cc(-c3ccc4nc(NC(=O)C5CCCCC5)sc4c3)cnc2Cl)cc1 [Example 304, N-(6-(6-chloro-5-(((4-methoxyphenyl)sulfonyl)amino)-3-pyridinyl)-1,3-benzothiazol-2-yl)cyclohexanecarboxamide] | 7.79 | 7.53 |
| CC(=O)Nc1nc2ccc(-c3cccc4sc(=O)[nH]c34)cc2s1 [Example 98, N-(6-(2-oxo-2,3-Dihydrobenzo[d]thiazol-4-yl)benzo[d]thiazol-2-yl)acetamide] | 5.50 | 5.00 |
| CC(=O)Nc1nc2ccc(-c3cnc(Cl)c(N(C(=O)OC(C)(C)C)C(=O)OC(C)(C)C)c3)cc2s1 [Example 277, Bis(tert-butyl) 5-(2-acetamidobenzo[d]thiazol-6-yl)-2-chloropyridin-3-ylcarbamate] | 5.66 | 5.32 |
| COc1ccc(S(=O)(=O)Nc2cc(-c3ccc4nc(NCC5CCCCC5)sc4c3)cnc2Cl)cc1 [Example 306, N-(2-chloro-5-(2-((cyclohexylmethyl)amino)-1,3-benzothiazol-6-yl)-3-pyridinyl)-4-methoxybenzenesulfonamide] | 6.98 | 6.39 |
| CC(=O)Nc1nc2ccc(-c3cccc4[nH]ncc34)cc2s1 [Example 99, N-(6-(1H-Indazol-4-yl)benzo[d]thiazol-2-yl)acetamide] | 6.54 | < 4.40 |
| CN(C)CC(=O)Nc1nc2ccc(-c3ccnc(OCc4ccccc4)n3)cc2s1 [Example 59, N-(6-(2-(benzyloxy)-4-pyrimidinyl)-1,3-benzothiazol-2-yl)-N~2~,N~2~-dimethylglycinamide] | 4.95 | 5.01 |
| CC(=O)Nc1nc2ccc(-c3cncc(OCCN4CCCCC4)c3)cc2s1 [Example 233, N-(6-(5-(2-(piperidin-1-yl)ethoxy)pyridin-3-yl)benzo[d]thiazol-2-yl)acetamide] | 5.38 | 4.92 |
| CC(=O)Nc1nc2ccc(-c3ccnc(N(C)S(=O)(=O)c4cccc5ccccc45)n3)cc2s1 [Example 207, N-(6-(2-(N-methylnaphthalene-1-sulfonamido)pyrimidin-4-yl)benzo[d]thiazol-2-yl)acetamide] | 6.90 | 6.66 |
| Nc1nc2ccc(-c3cccc(NS(=O)(=O)c4ccccc4)n3)cc2s1 [Example 71, N-(6-(2-Aminobenzo[d]thiazol-6-yl)pyridin-2-yl)benzenesulfonamide] | 5.42 | 5.84 |
